# Values joined by “and” are separate entries in the source; they are usually repeats but may differ in a detail not shown here. Equal entries are not always repeated. Structures can show the parent of a compound that is named as a salt.
# Columns and labels:
# [1] = pH of the donor solution (Tapentadol hydrochloride 100 mM in water) before and after iontophoresis; assay type: physicochemical
# Description: The anode was placed in the donor chamber; the donor solution was 3 ml of Tapentadol hydrochloride (100 mM, i.e. 25.78 mg/ml of Tapentadol hydrochloride, 22.13 mg/ml of base) in water. The cathode was placed in the receptor chamber, which contained 3 ml of phosphate-buffered saline, pH 7.4. Both chambers were stirred by magnets.
# Voltages were as expected for 6 cells in series (range was 6 to 28 volts). The pH of the donor solution was measured after termination of 24 hours of iontophoresis, and ranged from 6.47 to 6.99. The pH of drug in the donor prior to commencing the experiment was 5.07 (5.34 for the 8 hour iontophoresis).
# [2] = passive transdermal delivery of Tapentadol hydrochloride, 24 hours, no current (comparative example 1b, passive control); assay type: in vitro ADME, pig; conditions: for cumulative, passive delivery across the skin, Mean / cumulative, passive delivery across the skin, as tapentadol base, Mean / drug flux across the skin, Mean / drug flux across the skin, as tapentadol base, Mean: n=2; for cumulative, passive delivery across the skin, Mean / cumulative, passive delivery across the skin, as tapentadol base, Mean / drug flux across the skin, Mean / drug flux across the skin, as tapentadol base, Mean / drug flux across the skin / cumulative, passive delivery across the skin: patch area 0.64 cm^2; for drug flux across the skin, Mean / drug flux across the skin, as tapentadol base, Mean / drug flux across the skin: passive, no current; for drug flux across the skin / cumulative, passive delivery across the skin: single cells 1-2
# Description: For comparison, the rate of transdermal delivery of Tapentadol hydrochloride for a period of 24 hours has been determined without any means of electric-field-assisted administration (passive control).
# The flux of Tapentadol hydrochloride from passive diffusion alone was measured (n=2). The experimental set-up was exactly as previously described, except that no electrodes were placed in the diffusion cell and no current was applied. The temperature was held at 37° C. The receptor solution was sampled and assayed at 0.5, 1, 1.5, 2, 3, 4, 5, 6, 7, 8 and 24 hours. 1 ml of receptor solution was removed and replaced with fresh PBS at each sampling point.
smiles,measurement,setting,value
CC[C@@H](c1cccc(O)c1)[C@@H](C)CN(C)C [Tapentadol hydrochloride],pH of drug in the donor,[1]; prior to commencing the experiment (8 hour iontophoresis),5.34
same,pH of drug in the donor,[1]; prior to commencing the experiment (24 hour iontophoresis),5.07
same,"cumulative, passive delivery across the skin, Mean",[2]; 0.5 h,0 µg
same,"cumulative, passive delivery across the skin, as tapentadol base, Mean",[2]; 0.5 h,0 µg
same,"drug flux across the skin, Mean",[2]; 0.5 h,0 µg/h
same,"drug flux across the skin, as tapentadol base, Mean",[2]; 0.5 h,0 µg/h
same,drug flux across the skin,[2]; 0.5 h,0 µg/h
same,"cumulative, passive delivery across the skin",[2]; 0.5 h,0 µg
same,"cumulative, passive delivery across the skin, Mean",[2]; 1 h,0 µg
same,"cumulative, passive delivery across the skin, as tapentadol base, Mean",[2]; 1 h,0 µg
same,"drug flux across the skin, Mean",[2]; 1 h,0 µg/h
same,"drug flux across the skin, as tapentadol base, Mean",[2]; 1 h,0 µg/h
same,drug flux across the skin,[2]; 1 h,0 µg/h
same,"cumulative, passive delivery across the skin",[2]; 1 h,0 µg
same,"cumulative, passive delivery across the skin, Mean",[2]; 1.5 h,0 µg
same,"cumulative, passive delivery across the skin, as tapentadol base, Mean",[2]; 1.5 h,0 µg
same,"drug flux across the skin, Mean",[2]; 1.5 h,0 µg/h
same,"drug flux across the skin, as tapentadol base, Mean",[2]; 1.5 h,0 µg/h
same,drug flux across the skin,[2]; 1.5 h,0 µg/h
same,"cumulative, passive delivery across the skin",[2]; 1.5 h,0 µg
same,"cumulative, passive delivery across the skin, Mean",[2]; 2 h,0 µg
same,"cumulative, passive delivery across the skin, as tapentadol base, Mean",[2]; 2 h,0 µg
same,"drug flux across the skin, Mean",[2]; 2 h,0 µg/h
same,"drug flux across the skin, as tapentadol base, Mean",[2]; 2 h,0 µg/h
same,drug flux across the skin,[2]; 2 h,0 µg/h
same,"cumulative, passive delivery across the skin",[2]; 2 h,0 µg
same,"cumulative, passive delivery across the skin, Mean",[2]; 3 h,2 µg
same,"cumulative, passive delivery across the skin, as tapentadol base, Mean",[2]; 3 h,1 µg
same,"drug flux across the skin, Mean",[2]; 3 h,1 µg/h
same,"drug flux across the skin, as tapentadol base, Mean",[2]; 3 h,1 µg/h
same,drug flux across the skin,[2]; 3 h,1 µg/h
same,"cumulative, passive delivery across the skin","[2]; 3 h, listed as Tapentadol HCl, hydrochloride",2 µg and 1 µg
same,"cumulative, passive delivery across the skin, Mean",[2]; 4 h,4 µg
same,"cumulative, passive delivery across the skin, as tapentadol base, Mean",[2]; 4 h,3 µg
same,"drug flux across the skin, Mean",[2]; 4 h,2 µg/h
same,"drug flux across the skin, as tapentadol base, Mean",[2]; 4 h,2 µg/h
same,drug flux across the skin,[2]; 4 h,2 µg/h
same,"cumulative, passive delivery across the skin","[2]; 4 h, listed as Tapentadol HCl, hydrochloride",4 µg and 3 µg
same,"cumulative, passive delivery across the skin, Mean",[2]; 5 h,6 µg
same,"cumulative, passive delivery across the skin, as tapentadol base, Mean",[2]; 5 h,5 µg
same,"drug flux across the skin, Mean",[2]; 5 h,3 µg/h
same,"drug flux across the skin, as tapentadol base, Mean",[2]; 5 h,2 µg/h
same,drug flux across the skin,"[2]; 5 h, hydrochloride",3 µg/h and 2 µg/h
same,"cumulative, passive delivery across the skin","[2]; 5 h, listed as Tapentadol HCl, hydrochloride",7 µg and 5 µg
same,"cumulative, passive delivery across the skin, Mean",[2]; 6 h,9 µg
same,"cumulative, passive delivery across the skin, as tapentadol base, Mean",[2]; 6 h,8 µg
same,"drug flux across the skin, Mean",[2]; 6 h,3 µg/h
same,"drug flux across the skin, as tapentadol base, Mean",[2]; 6 h,3 µg/h
same,drug flux across the skin,"[2]; 6 h, hydrochloride",4 µg/h and 3 µg/h
same,"cumulative, passive delivery across the skin","[2]; 6 h, listed as Tapentadol HCl, hydrochloride",11 µg and 8 µg
same,"cumulative, passive delivery across the skin, Mean",[2]; 7 h,13 µg
same,"cumulative, passive delivery across the skin, as tapentadol base, Mean",[2]; 7 h,11 µg
same,"drug flux across the skin, Mean",[2]; 7 h,3 µg/h
same,"drug flux across the skin, as tapentadol base, Mean",[2]; 7 h,3 µg/h
same,drug flux across the skin,"[2]; 7 h, hydrochloride",4 µg/h and 3 µg/h
same,"cumulative, passive delivery across the skin","[2]; 7 h, listed as Tapentadol HCl, hydrochloride",14 µg and 11 µg
same,"cumulative, passive delivery across the skin, Mean",[2]; 8 h,18 µg
same,"cumulative, passive delivery across the skin, as tapentadol base, Mean",[2]; 8 h,15 µg
same,"drug flux across the skin, Mean",[2]; 8 h,5 µg/h
same,"drug flux across the skin, as tapentadol base, Mean",[2]; 8 h,4 µg/h
same,drug flux across the skin,"[2]; 8 h, hydrochloride",5 µg/h and 4 µg/h
same,"cumulative, passive delivery across the skin","[2]; 8 h, listed as Tapentadol HCl, hydrochloride",20 µg and 15 µg
same,"cumulative, passive delivery across the skin, Mean",[2]; 24 h,186 µg
same,"cumulative, passive delivery across the skin, as tapentadol base, Mean",[2]; 24 h,159 µg
same,"drug flux across the skin, Mean",[2]; 24 h,11 µg/h
same,"drug flux across the skin, as tapentadol base, Mean",[2]; 24 h,9 µg/h
same,drug flux across the skin,"[2]; 24 h, hydrochloride",11 µg/h and 10 µg/h
same,"cumulative, passive delivery across the skin","[2]; 24 h, listed as Tapentadol HCl, hydrochloride",192 µg and 179 µg
same,rate of passive diffusion,[2]; by 24 hours,16 μg/h/cm2
same,time within which steady state flux was not reached,"[2]; comparative example 1b, passive diffusion",> 8 h
